From patent publication US20210196654A1, “METHOD OF TREATING CONDITIONS” (Clexio Biosciences Ltd., priority 2019, published 2021)
Like-named read-outs stand apart in the source and are kept apart here.

What was measured:
[1] = Repeated dose 28 day toxicokinetics; details: for AUC(0-inf) / AUC(0-t) / Cmax / half-life / Tmax: Sprague Dawley, rat, in vivo, po; for AUC(0-t): AUC0-t
Protocol: The objective of the study was to assess the potential toxicity, neurobehavioral effects, and toxicokinetics (TK) of esketamine when administered orally, via gavage, to Sprague Dawley rats for 28 days and to evaluate recovery during a 14-day drug-free period. Fifty male and 50 female rats were randomized into 4 groups (15/sex/Groups 1 and 4; 10/sex/Groups 2 and 3). Esketamine was administered via oral gavage once daily for 28 consecutive days to males at 0 (vehicle control), 6, 10 or 30 mg/kg/day and females at 0 (vehicle control), 2, 10 or 20 mg/kg/day in a dose volume of 10 mL/kg. Animals were observed until euthanized and necropsied on Day 29 (10/sex/group) or 43 (5/sex from Groups 1 and 4). Toxicity was evaluated based on mortality, clinical observations, body weights, food consumption, ophthalmology, motor activity, functional observational battery, clinical pathology (clinical chemistry, hematology, coagulation and urinalysis), organ weights, anatomic (macroscopic or microscopic) pathology. Toxicokinetic animals (3/sex/Group 1; 6/sex/Groups 2, 3, and 4) were similarly dosed and bled on Day 1 and during Week 4 for toxicokinetic analysis.

[2] = tested on: liver of Crl:CD(SD) rats; assay: In vivo single cell gel electrophoresis (comet) assay in liver; details: for lower benchmark dose (BMDL50): single slide median Tail Intensity, PROAST
[3] = cited from earlier work
[4] = tested on: healthy male and female subjects; assay: Single dose crossover study in healthy volunteers, adverse events; type: in vivo, human
Source text: A total of 128 TEAEs (treatment-emergent adverse event) were reported by 15 of 16 (94%) subjects of which 79 TEAEs reported by 14 of 16 (88%) subjects were to be related to the study drug. Overall, a total of 14 of 128 TEAEs reported by 4 (25%) subjects were of moderate severity and 114 of 128 TEAEs reported by 15 (94%) subjects were of mild severity. […] The most frequently occurring adverse events (reported more than twice) were headache, dizziness, hypokinesia, feeling abnormal, fatigue, euphoric mood inappropriate affect, nausea and hyperhidrosis. Table 4 presents the frequency of the most frequently reported related TEAEs as a percentage of the subjects that experienced an adverse effect per treatment.

[5] = female, 2 mg/kg, Day 1, female rats, 2 mg/kg oral
[6] = female, 2 mg/kg, Day 28, female rats, 2 mg/kg oral
[7] = female, 10 mg/kg, Day 1, female rats, 10 mg/kg oral
[8] = female, 10 mg/kg, Day 28, female rats, 10 mg/kg oral
[9] = female, 20 mg/kg, Day 1, female rats, 20 mg/kg oral
[10] = female, 20 mg/kg, Day 28, female rats, 20 mg/kg oral
[11] = male, 6 mg/kg, Day 1, male rats, 6 mg/kg oral
[12] = male, 6 mg/kg, Day 28, male rats, 6 mg/kg oral
[13] = male, 10 mg/kg, Day 1, male rats, 10 mg/kg oral
[14] = male, 10 mg/kg, Day 28, male rats, 10 mg/kg oral
[15] = male, 30 mg/kg, Day 1, male rats, 30 mg/kg oral
[16] = male, 30 mg/kg, Day 28, male rats, 30 mg/kg oral

## CN[C@]1(c2ccccc2Cl)CCCCC1=O [esketamine, (2S)-2-(2-Chlorophenyl)-2-(methylamino) cyclohexanone]
[1]; Day 1, female rats, 2 mg/kg oral
  Dose normalized AUC0-inf: 29.0 (ng*h/ml)/(mg/kg)
[1]; Day 1, female rats, 10 mg/kg oral
  Dose normalized AUC0-inf: 44.0 (ng*h/ml)/(mg/kg)
[1]; Day 1, female rats, 20 mg/kg oral
  Dose normalized AUC0-inf: 49.8 (ng*h/ml)/(mg/kg)
[1]; Day 1, male rats, 6 mg/kg oral
  Dose normalized AUC0-inf: 17.2 (ng*h/ml)/(mg/kg)
[1]; Day 1, male rats, 10 mg/kg oral
  Dose normalized AUC0-inf: 18.1 (ng*h/ml)/(mg/kg)
[1]; Day 1, male rats, 30 mg/kg oral
  Dose normalized AUC0-inf: 19.5 (ng*h/ml)/(mg/kg)
[1]; Day 28, female rats, 2 mg/kg oral
  Dose normalized AUC0-t: 31.0 (ng*h/ml)/(mg/kg)
[1]; Day 28, female rats, 10 mg/kg oral
  Dose normalized AUC0-t: 51.3 (ng*h/ml)/(mg/kg)
[1]; Day 28, female rats, 20 mg/kg oral
  Dose normalized AUC0-t: 53.2 (ng*h/ml)/(mg/kg)
[1]; Day 28, male rats, 6 mg/kg oral
  Dose normalized AUC0-t: 10.2 (ng*h/ml)/(mg/kg)
[1]; Day 28, male rats, 10 mg/kg oral
  Dose normalized AUC0-t: 17.9 (ng*h/ml)/(mg/kg)
[1]; Day 28, male rats, 30 mg/kg oral
  Dose normalized AUC0-t: 19.2 (ng*h/ml)/(mg/kg)
[1]; after normalization for dose level differences
  sex difference in exposure: males had lower exposures than females
[1]; female, 2 mg/kg
  AUC(0-inf): 58 ng·h/mL
[1]; [5]
  AUC(0-t): 57 ng·h/mL
  Cmax: 67.2 ng/mL
  Tmax: 10.2 min
[1]; [6]
  AUC(0-t): 62 ng·h/mL
  Cmax: 133 ng/mL
  Tmax: 10.2 min
[1]; female, 2 mg/kg, t1/2, Day 1, female rats, 2 mg/kg oral
  half-life: 30 min
[1]; female, 10 mg/kg
  AUC(0-inf): 440 ng·h/mL
[1]; [7]
  AUC(0-t): 418 ng·h/mL
  Cmax: 295 ng/mL
  Tmax: 10.2 min
[1]; [8]
  AUC(0-t): 514 ng·h/mL
  Cmax: 768 ng/mL
  Tmax: 10.2 min
[1]; female, 10 mg/kg, t1/2, Day 1, female rats, 10 mg/kg oral
  half-life: 42 min
[1]; female, 10 mg/kg, t1/2, Day 28, female rats, 10 mg/kg oral
  half-life: 24 min
[1]; female, 20 mg/kg
  AUC(0-inf): 995 ng·h/mL
[1]; [9]
  AUC(0-t): 993 ng·h/mL
  Cmax: 672 ng/mL
  Tmax: 10.2 min
[1]; [10]
  AUC(0-t): 1060 ng·h/mL
  Cmax: 1450 ng/mL
  Tmax: 10.2 min
[1]; female, 20 mg/kg, t1/2, Day 1, female rats, 20 mg/kg oral
  half-life: 54 min
[1]; female, 20 mg/kg, t1/2, Day 28, female rats, 20 mg/kg oral
  half-life: 36 min
[1]; females
  Cmax Day 28 vs Day 1: higher on Day 28
[1]; females, 2 to 20 mg/kg/day
  exposure increase with dose: slightly greater than dose-proportional
[1]; male, 6 mg/kg
  AUC(0-inf): 103 ng·h/mL
[1]; [11]
  AUC(0-t): 99 ng·h/mL
  Cmax: 109 ng/mL
  Tmax: 10.2 min
[1]; [12]
  AUC(0-t): 61 ng·h/mL
  Cmax: 113 ng/mL
  Tmax: 10.2 min
[1]; male, 6 mg/kg, t1/2, Day 1, male rats, 6 mg/kg oral
  half-life: 48 min
[1]; male, 6 mg/kg, t1/2, Day 28, male rats, 6 mg/kg oral
  half-life: 36 min
[1]; male, 10 mg/kg
  AUC(0-inf): 181 ng·h/mL
[1]; [13]
  AUC(0-t): 175 ng·h/mL
  Cmax: 179 ng/mL
  Tmax: 10.2 min
[1]; [14]
  AUC(0-t): 179 ng·h/mL
  Cmax: 211 ng/mL
  Tmax: 10.2 min
[1]; male, 10 mg/kg, t1/2, Day 1, male rats, 10 mg/kg oral
  half-life: 42 min
[1]; male, 10 mg/kg, t1/2, Day 28, male rats, 10 mg/kg oral
  half-life: 36 min
[1]; male, 30 mg/kg
  AUC(0-inf): 585 ng·h/mL
[1]; [15]
  AUC(0-t): 580 ng·h/mL
  Cmax: 296 ng/mL
  Tmax: 10.2 min
[1]; [16]
  AUC(0-t): 575 ng·h/mL
  Cmax: 398 ng/mL
  Tmax: 30 min
[1]; male, 30 mg/kg, t1/2, Day 1, male rats, 30 mg/kg oral
  half-life: 72 min
[1]; male, 30 mg/kg, t1/2, Day 28, male rats, 30 mg/kg oral
  half-life: 90 min
[1]; males, 6 to 30 mg/kg/day
  exposure increase with dose: generally dose-proportional
[2]; after 3 doses
  macroscopic examination: no test item related lesions
[2]; female rats, 25 and 50 mg/kg/day
  group mean and median % TI values vs historical control range: outside of the current vehicle historical control range
[2]; female rats, 25 and 50 mg/kg/day oral, 3 doses, p<0.001
  median % TI in liver vs vehicle control: Statistically significant increases
[2]; female rats
  lower benchmark dose (BMDL50): 9.83 mg/kg/day
[2]; male and female rats, oral gavage
  DNA strand breaks in the liver, conclusion: evidence of causing an increase in DNA strand breaks
[2]; male or female rats, any dose level
  Hedgehog cells in liver: No Hedgehog cells were observed
[2]; male rats, 75 mg/kg/day
  group mean and median % TI values vs historical control range: outside of the current vehicle historical control range
[2]; male rats, 75 mg/kg/day oral, 3 doses, p<0.001
  median % tail intensity (TI) in liver vs vehicle control: Statistically significant increases
[2]; male rats
  lower benchmark dose (BMDL50): 27.31 mg/kg/day
[2]; some male animals, 75 mg/kg/day
  liver histopathological examination: Increased hepatocellular mitotic figures
[3]; Fanta et al (2015)
  oral bioavailability: 8%
[3]; Peltoniemi et al (2012)
  oral bioavailability: 11%
[4]; 0.3 mg/kg iv
  Dizziness, related TEAE, percentage of subjects: 6%
  Euphoric mood, related TEAE, percentage of subjects: 19%
  Fatigue, related TEAE, percentage of subjects: 6%
  Feeling abnormal, related TEAE, percentage of subjects: 13%
  Headache, related TEAE, percentage of subjects: 19%
  Hypokinesia, related TEAE, percentage of subjects: 6%
  Inappropriate affect, related TEAE, percentage of subjects: 6%
  Nausea, related TEAE, percentage of subjects: 6%
[4]; 20 mg oral solution
  Feeling abnormal, related TEAE, percentage of subjects: 19%
  Headache, related TEAE, percentage of subjects: 19%
  Inappropriate affect, related TEAE, percentage of subjects: 6%
[4]; 20 mg oral tablet
  Dizziness, related TEAE, percentage of subjects: 13%
  Fatigue, related TEAE, percentage of subjects: 7%
  Feeling abnormal, related TEAE, percentage of subjects: 7%
  Hyperhidrosis, related TEAE, percentage of subjects: 7%
[4]; 100 mg oral tablet
  Dizziness, related TEAE, percentage of subjects: 13%
  Euphoric mood, related TEAE, percentage of subjects: 13%
  Feeling abnormal, related TEAE, percentage of subjects: 20%
  Headache, related TEAE, percentage of subjects: 13%
  Hyperhidrosis, related TEAE, percentage of subjects: 7%
  Hypokinesia, related TEAE, percentage of subjects: 13%
  Inappropriate affect, related TEAE, percentage of subjects: 7%
  Nausea, related TEAE, percentage of subjects: 20%
[4]; 4 subjects
  subjects reporting TEAEs of moderate severity: 25%
[4]; 14 of 16 subjects
  subjects reporting TEAEs related to the study drug: 88%
[4]; 15 of 16 subjects
  subjects reporting TEAEs: 94%
[4]; 15 subjects
  subjects reporting TEAEs of mild severity: 94%
[4]; 15 subjects who completed the study
  tolerability: generally well tolerated
[4]; all treatments
  TEAEs related to the study drug: 79
  severe TEAEs or SAEs: No severe TEAEs or SAEs were reported
[4]; all treatments, 16 subjects
  total TEAEs reported: 128
[4]; of 128 TEAEs
  TEAEs of mild severity: 114
  TEAEs of moderate severity: 14
